# Measurements taken from US20120009152A1, “NITRIC OXIDE DONORS FOR TREATMENT OF DISEASE AND INJURY” (priority 2002, published 2012).
# Legend:
# nonischemic rats = assay: Localized CBF by laser-Doppler flowmetry; format: in vivo, rat; settings: sildenafil 2 mg/kg
# Protocol: Ischemic rats (n=9) were treated with the same volume of tap water as a control group. Functional tests were performed and body weight was measured before ischemia and at 4, 7, 14, 21, and 28 days after onset of MCA occlusion. All rats were killed 28 days after MCA occlusion. […] These rats were killed 1 hour after the last treatment for measurements of brain levels of cGMP. […] Reverse transcription (RT)-polymerase chain reaction (PCR) was performed to detect PDE5 in brain tissue. Relative erythrocyte flow velocity was measured by laser-Doppler flowmetry (PeriFlux PF4 flowmeter; Perimed AB) in the tissue under the laser-Doppler flowmetry probe. 13 A burr hole 1.5 mm in diameter was drawn on the skull 2 mm posterior to the bregma and 6 mm lateral to midline. 13 The dura was left intact. After the application of mineral oil onto the burr hole, the probe was laced 0.5 mm above the dural surface. […] This measurement reflects relatively localized CBF. 14 Values of flow velocities are presented as a percentage of the contralateral hemispheric values.
# [1] = test system: BrdU-immunoreactive cells in the subventricular zone and dentate gyrus; assay: BrdU cell proliferation in subventricular zone and dentate gyrus after embolic MCA occlusion; format: in vivo, rat; settings: 28 days
# Protocol: Male Wistar rats weighing 320 to 380 g were used in the present study. The middle cerebral artery (MCA) was occluded by placement of an embolus at the origin of the MCA. […] Ischemic rats (n=9) were treated with the same volume of tap water as a control group. Functional tests were performed and body weight was measured before ischemia and at 4, 7, 14, 21, and 28 days after onset of MCA occlusion. All rats were killed 28 days after MCA occlusion. […] These rats were killed 1 hour after the last treatment for measurements of brain levels of cGMP. […] Reverse transcription (RT)-polymerase chain reaction (PCR) was performed to detect PDE5 in brain tissue. Bromodeoxyuridine (BrdU) was used to measure cell proliferation. Animals received daily intraperitoneal injections of BrdU (50 mg/kg; Sigma) on the day of stroke and subsequently for 14 consecutive days. Cell proliferation in the subventricular zone and dentate gyrus was measured in rats killed at 28 days (in experimental protocol 1, all 4 groups) after ischemia. […] Sections were incubated with a primary antibody to BrdU (1:100) at room temperature for 1 hour and then incubated with biotinylated secondary antibody (1:200, Vector) for 1 hour. Reaction product was detected with the use of 3′3′-diaminobenzidine-tetrahydrochloride (DAB; Sigma), For ′III-tubulin (TuJ1) immunostaining, which identifies immature neurons, 12 coronal sections were incubated with the antibody against TuJ1 (1:1000) at 4° C. overnight and were then incubated with a biotinylated horse anti-mouse immunoglobulin antibody at room temperature for 30 minutes. Double immunofluorescent staining for BrdU and TuJ1 as performed to determine whether BrdU-immunoreactive cells express neuronal phenotype on the coronal sections. Measurements of BrdU-immunoreactive cells were performed on paraffin-embedded 6-μm-thick sections. 11 BrdU-immunostained sections were digitized with the use of a 40 objective (Olympus BX40) via the MCID computer imaging analysis system (Imaging Research). BrdU-immunoreactive nuclei were counted on a computer monitor to improve visualization and in 1 focal plane to avoid oversampling. All BrdU-immunoreactive-positive nuclei were counted in both the ipsilateral and contralateral walls of the lateral ventricle of the subventricular zone and in the dentate gyrus. […] For the dentate gyrus, every 50th coronal section was selected from each rat for a total of 8 sections between anteroposterior 5.86 mm and anteroposterior 2.96 mm of the granule cell layer. BrdU-immunoreactive nuclei in the subventricular zone and in the dentate gyrus are presented as the number of the cells per square millimeter (mean SE). […] Numbers of TuJ1-immunoreactive cells were counted in the subventricular one and striatum, and data are presented as the number of TuJ1-immunoreactive cells per section (mean SE).
# [2] = Animal body weight loss after embolic MCA occlusion; format: in vivo, rat
# Protocol: Male Wistar rats weighing 320 to 380 g were used in the present study. The middle cerebral artery (MCA) was occluded by placement of an embolus at the origin of the MCA. […] Ischemic rats (n=9) were treated with the same volume of tap water as a control group. Functional tests were performed and body weight was measured before ischemia and at 4, 7, 14, 21, and 28 days after onset of MCA occlusion. All rats were killed 28 days after MCA occlusion. […] These rats were killed 1 hour after the last treatment for measurements of brain levels of cGMP. […] Reverse transcription (RT)-polymerase chain reaction (PCR) was performed to detect PDE5 in brain tissue. Animals were weighed before and at 4, 7, 14, 21, and 28 days after embolic ischemia. Body weight loss is presented as a percentage of […] body weight.
# rat VEGF = assay: Sandwich ELISA of VEGF secretion from endogenous cells after MCAo; format: in vivo; settings: vs MCAo control group
# Protocol: Male Wistar rats (n=32) were subjected to middle cerebral artery occlusion (MCAo) and were randomized with 8 rats in four treatment groups, with treatment initiated 1 day after stroke. Groups included: 1) phosphate buffered saline (PBS); 2) subtherapeutic DETA-NONOate (NN) at a dose of 0.4 mg/kg (IP); 3) subtherapeutic hMSCs (1×10^6 cells-iv); and 4) combination subtherapeutic NN and hMSCs. Functional outcome measurements consisted of a Neurologic Severity Scale (18 point scale) (NSS) and the Adhesive Removal Test performed prior to stroke, immediately before treatment and at 7 and 14 days after treatment. […] However, there was an overall hMSC effect on NSS at 14 days.
# To obtain insight into the mechanisms associated with the induction of angiogenesis and neurogenesis, the fact that combination therapy induces the expression of neurotrophic and growth factors in brain was tested. Data are presented on the levels of vascular endothelial growth factor (VEGF) in brain after treatment with MSCs.
# [3] = Sildenafil 2 mg/kg from 2 h after MCA occlusion
# [4] = Sildenafil 2 mg/kg from 24 h after MCA occlusion
# [5] = Sildenafil 5 mg/kg from 2 h after MCA occlusion
compound,measurement,setting,value
CCCc1nn(C)c2c(=O)[nH]c(-c3cc(S(=O)(=O)N4CCN(C)CC4)ccc3OCC)nc12 [Sildenafil],duration of significantly increased localized CBF after administration,nonischemic rats,70 min
same,localized CBF levels,nonischemic rats; vs control rats,significantly increased localized CBF levels
same,"Density of newborn cells, Dentate Gyrus Contralateral",[1]; [3],55 ± 2.10 cells per mm^2
same,"Density of newborn cells, Dentate Gyrus Ipsilateral",[1]; [3],55 ± 3.99 cells per mm^2
same,"Density of newborn cells, Subventricular Zone Contralateral",[1]; [3],296 ± 19.74 cells per mm^2
same,"Density of newborn cells, Dentate Gyrus Contralateral",[1]; [4],56 ± 4.76 cells per mm^2
same,"Density of newborn cells, Dentate Gyrus Ipsilateral",[1]; [4],57 ± 4.21 cells per mm^2
same,"Density of newborn cells, Subventricular Zone Contralateral",[1]; [4],295 ± 24.54 cells per mm^2
same,"Density of newborn cells, Subventricular Zone Ipsilateral",[1]; [4],374 ± 16.07 cells per mm^2
same,"Density of newborn cells, Subventricular Zone Ipsilateral",[1]; Sildenafil 2 mg/kg oral daily 7 days from 2 h after MCA occlusion,383 ± 23.44 cells per mm^2
same,"Density of newborn cells, Dentate Gyrus Contralateral",[1]; [5],58 ± 5.38 cells per mm^2
same,"Density of newborn cells, Dentate Gyrus Ipsilateral",[1]; [5],59 ± 5.26 cells per mm^2
same,"Density of newborn cells, Subventricular Zone Contralateral",[1]; [5],312 ± 23.79 cells per mm^2
same,"Density of newborn cells, Subventricular Zone Ipsilateral",[1]; [5],437 ± 32.97 cells per mm^2
same,% of Preischemic Body Weight,"[2]; Sildenafil 2 mg/kg, 2 h, 4 d",81.8 ± 2.3%
same,% of Preischemic Body Weight,"[2]; Sildenafil 2 mg/kg, 2 h, 7 d",86.6 ± 2.5 %
same,% of Preischemic Body Weight,"[2]; Sildenafil 2 mg/kg, 2 h, 14 d",89.6 ± 4.7 %
same,% of Preischemic Body Weight,"[2]; Sildenafil 2 mg/kg, 2 h, 21 d",98.2 ± 3.7 %
same,% of Preischemic Body Weight,"[2]; Sildenafil 2 mg/kg, 2 h, 28 d",105.2 ± 3.0 %
same,% of Preischemic Body Weight,"[2]; Sildenafil 2 mg/kg, 2 h group, Before Ischemia (baseline)",100%
same,% of Preischemic Body Weight,"[2]; Sildenafil 2 mg/kg, 24 h, 4 d",86.9 ± 0.2%
same,% of Preischemic Body Weight,"[2]; Sildenafil 2 mg/kg, 24 h, 7 d",84.9 ± 1.8 %
same,% of Preischemic Body Weight,"[2]; Sildenafil 2 mg/kg, 24 h, 14 d",89.2 ± 2.6 %
same,% of Preischemic Body Weight,"[2]; Sildenafil 2 mg/kg, 24 h, 21 d",99.5 ± 2.0 %
same,% of Preischemic Body Weight,"[2]; Sildenafil 2 mg/kg, 24 h, 28 d",107.2 ± 2.5 %
same,% of Preischemic Body Weight,"[2]; Sildenafil 2 mg/kg, 24 h group, Before Ischemia (baseline)",100%
same,% of Preischemic Body Weight,"[2]; Sildenafil 5 mg/kg, 2 h, 4 d",84.6 ± 1.8%
same,% of Preischemic Body Weight,"[2]; Sildenafil 5 mg/kg, 2 h, 7 d",81.8 ± 2.5 %
same,% of Preischemic Body Weight,"[2]; Sildenafil 5 mg/kg, 2 h, 14 d",84.7 ± 3.9%
same,% of Preischemic Body Weight,"[2]; Sildenafil 5 mg/kg, 2 h, 21 d",95.2 ± 3.5 %
same,% of Preischemic Body Weight,"[2]; Sildenafil 5 mg/kg, 2 h, 28 d",101.3 ± 4.3%
same,% of Preischemic Body Weight,"[2]; Sildenafil 5 mg/kg, 2 h group, Before Ischemia (baseline)",100%
"NCCN(CCN)/[N+]([O-])=N/O [DETANONOate, (Z)-1-[N-(2-aminoethyl)-N-(2-ammonioethyl)aminio]diazen-1-ium-1,2-diolate]",VEGF secretion from endogenous cells (rat VEGF),rat VEGF,did not show a significant increase
